Measurements: US12006283B2, “HIF-1α inhibitor, preparation method therefor, and pharmaceutical composition for preventing or treating angiogenesis-associated eye disease, containing same as active ingredient” (SEOUL NATIONAL UNIVERSITY R&DB FOUNDATION, priority 2018, dated 2024)

Legend:
[1] = target: T1, HIF-1α (hypoxia-inducible factor 1α) (Homo sapiens, UniProt Q16665); experiment: Evaluation of HIF-1α inhibitory activity (in vitro); assay type: cell-based; details: for IC50: HIF-1α inhibitory activity
Experimental: <Experimental Example 1> Evaluation of HIF-La Inhibitory Activity (In Vitro) The following experiment was performed in order to evaluate inhibitory activity against HIF-1α (hypoxia-inducible factor 1α) of the compound of Example according to an embodiment of the present invention.

[2] = target: T1, HIF-1α (hypoxia-inducible factor 1α); experiment: Evaluation of HIF-1α regulatory activity (in vitro); assay type: cell-based; details: FIG. 2, compared with Comparative Example 1
Experimental: <Experimental Example 3> Evaluation of HIF-1α Regulatory Activity (In Vitro)
The following experiment was performed in order to evaluate regulatory activity of HIF-1α (hypoxia-inducible factor 1α) of the compound of Example according to an embodiment of the present invention.
FIG. 2 is a graph showing the results of analysis of the regulatory activity of HIF-1α (hypoxia-inducible factor 1α) of the compound of Example according to an embodiment of the present invention, wherein compound 2 is a compound of Comparative Example 1, and compound 34f is a compound of Example 10.

[3] = test system: retinal neovascularization by hypoxia; experiment: Evaluation of inhibitory activity against retinal neovascularization by hypoxia; assay type: in vivo; details: FIG. 3; compared with Comparative Example 1
Experimental: <Experimental Example 4> Evaluation of Inhibitory Activity Against Retinal Neovascularization by Hypoxia
The following experiment was performed in order to evaluate inhibitory activity against retinal neovascularization by hypoxia of the compound of Example according to an embodiment of the present invention.
FIG. 3 is a graph showing the results of analysis of the inhibitory activity against retinal neovascularization by hypoxia of the compound of Example according to an embodiment of the present invention, wherein compound 2 is a compound of Comparative Example 1, and compound 34f is a compound of Example 10.

[4] = test system: angiogenesis; experiment: Evaluation of inhibitory activity against angiogenesis (in vitro); assay type: cell-based; details: FIG. 1, compared with Comparative Example 1
Experimental: <Experimental Example 2> Evaluation of Inhibitory Activity Against Angiogenesis (In Vitro)
The following experiment was performed in order to evaluate inhibitory activity against angiogenesis of the compound of Example according to an embodiment of the present invention.
FIG. 1 is a graph showing the results of analysis of inhibitory activity against angiogenesis of the compound of Example according to an embodiment of the present invention, wherein compound 2 is a compound of Comparative Example 1, and compound 34f is a compound of Example 10.

T1 sequence (Q16665 whole entry, looked up): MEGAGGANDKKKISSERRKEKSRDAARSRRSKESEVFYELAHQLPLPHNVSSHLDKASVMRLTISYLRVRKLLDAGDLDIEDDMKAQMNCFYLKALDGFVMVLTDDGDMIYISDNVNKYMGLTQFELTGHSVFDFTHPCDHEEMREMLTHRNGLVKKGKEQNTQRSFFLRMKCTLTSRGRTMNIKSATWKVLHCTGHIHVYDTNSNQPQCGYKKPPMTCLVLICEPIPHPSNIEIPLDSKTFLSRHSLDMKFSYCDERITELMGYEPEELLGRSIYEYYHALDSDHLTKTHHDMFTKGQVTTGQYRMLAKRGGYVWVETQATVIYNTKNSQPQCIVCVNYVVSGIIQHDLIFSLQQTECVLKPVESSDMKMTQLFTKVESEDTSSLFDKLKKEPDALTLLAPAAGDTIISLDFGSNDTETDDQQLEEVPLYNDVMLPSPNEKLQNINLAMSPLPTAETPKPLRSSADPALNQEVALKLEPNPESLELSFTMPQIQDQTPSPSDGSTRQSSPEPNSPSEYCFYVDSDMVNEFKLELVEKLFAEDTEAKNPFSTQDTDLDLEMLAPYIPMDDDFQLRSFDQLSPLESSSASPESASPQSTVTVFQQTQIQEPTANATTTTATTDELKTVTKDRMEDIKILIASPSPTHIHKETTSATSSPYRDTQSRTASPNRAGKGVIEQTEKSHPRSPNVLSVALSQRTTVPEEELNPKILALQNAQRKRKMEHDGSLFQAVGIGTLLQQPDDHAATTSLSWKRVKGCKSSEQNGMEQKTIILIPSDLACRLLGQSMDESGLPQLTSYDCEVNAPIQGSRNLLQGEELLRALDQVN

Row | IC50 [1] [µM] | Molecule | other results
1 | > 15 | COc1ccc(C(=O)C(C)c2ccc(OC)c(OC)c2)c(OC)c1 (stereo not shown) [Example 2, 1-(2,4-dimethoxyphenyl)-2-(3,4-dimethoxyphenyl)propan-1-one] | 
2 | 11.7 | CCOc1ccc(C(=O)C(C)c2ccc(OC)c(OC)c2)c(OC)c1 (stereo not shown) [Example 3, 2-(3,4-dimethoxyphenyl)-1-(4-ethoxy-2-methoxyphenyl)propan-1-one] | 
3 | > 15 | COc1ccc(C(C)C(=O)c2ccc(N(C)C)cc2OC)cc1OC (stereo not shown) [Example 5, 2-(3,4-dimethoxyphenyl)-1-(4-(dimethylamino)-2-methoxyphenyl)propan-1-one] | 
4 | 2.82 | COc1ccc(C(C)C(=O)c2ccc(N3CCCC3)cc2OC)cc1OC (stereo not shown) [Example 6, 2-(3,4-dimethoxyphenyl)-1-(2-methoxy-4-(pyrrolidin-1-yl)phenyl)propan-1-one] | 
5 | 1.43 | COc1ccc(C(C)C(=O)c2ccc(NCc3ccccc3)cc2OC)cc1OC (stereo not shown) [Example 9, 1-(4-(benzylamino)-2-methoxyphenyl)-2-(3,4-dimethoxyphenyl)propan-1-one] | 
6 | 0.6 | COc1ccc(C(C)C(=O)c2ccc(NCc3ccc(C#N)cc3)cc2OC)cc1OC (stereo not shown) [Example 10] | HIF-1α regulatory activity [2]: better HIF-1α regulatory activity than that of the compound of Comparative Example 1; inhibitory activity against HIF-1α (in words) ([1]; comment on Table 2): best inhibitory activity against HIF-1a; inhibitory activity against retinal neovascularization by hypoxia [3]: better inhibitory activity against retinal neovascularization by hypoxia than that of the compound of Comparative Example 1; inhibitory activity against angiogenesis [4]: better inhibitory activity against angiogenesis than that of the compound of Comparative Example 1
7 | 5.28 | COc1cc(NCc2ccc(C#N)cc2)ccc1C(=O)C(C)c1ccccc1F (stereo not shown) [Example 16, 4-(((4-(2-(2-fluorophenyl)propanoyl)-3-methoxyphenyl)amino)methyl)benzonitrile] | 

More lines, now with the values behind:

Row | Molecule | IC50 [1] [µM] | other results
8 | 2-(3,4-dimethoxyphenyl)-1-(4-(pyrrolidin-1-yl)phenyl)propan-1-one [Example 11] | 2.61 | 
9 | COc1ccc(C(C)C(=O)c2ccc(OC3CCCCC3)cc2OC)cc1OC (stereo not shown) [Example 4, 1-(4-(cyclohexyloxy)-2-methoxyphenyl)-2-(3,4-dimethoxyphenyl)propan-1-one] | 2.59 | 
10 | COc1ccc(C(C)C(=O)c2ccc(N3CCCCC3)cc2OC)cc1OC (stereo not shown) [Example 7, 2-(3,4-dimethoxyphenyl)-1-(2-methoxy-4-(piperidin-1-yl)phenyl)propan-1-one] | 1.85 | 
11 | COc1ccc(C(C)C(=O)c2ccc(N3CCOCC3)cc2OC)cc1OC (stereo not shown) [Example 8, 2-(3,4-dimethoxyphenyl)-1-(2-methoxy-4-morpholinophenyl)propan-1-one] | 8.74 | 
12 | COc1ccc(C(C)C(=O)c2ccc(N3CCOCC3)cc2)cc1OC (stereo not shown) [Example 12, 2-(3,4-dimethoxyphenyl)-1-(4-morpholinophenyl)propan-1-one] | 6.85 | 
13 | CC(C(=O)c1ccc(N2CCCCC2)cc1)c1ccccc1F (stereo not shown) [Example 13, 2-(2-fluorophenyl)-1-(4-(piperidin-1-yl)phenyl)propan-1-one] | 2.06 | 
14 | CC(C(=O)c1ccc(NCc2ccccc2)cc1)c1ccccc1F (stereo not shown) [Example 14, 1-(4-(benzylamino)phenyl)-2-(2-fluorophenyl)propan-1-one] | 7.35 | 
15 | COc1cc(N2CCCCC2)ccc1C(=O)C(C)c1ccccc1F (stereo not shown) [Example 15, 2-(2-fluorophenyl)-1-(2-methoxy-4-(piperidin-1-yl)phenyl)propan-1-one] | 6.52 | 
